{
  "source": "patent US8252832B2",
  "about": "“Kinesin inhibitors as cancer therapeutics” (Novartis AG, priority 2007, dated 2012)",
  "test_in_all_cases": "Caspase-Glo 3/7 assay",
  "assay_type_in_all_cases": "cell-based",
  "key": {"[1]": {"test_system": "T47-D", "settings": "Homo sapiens, T47D", "from_the_text": "(§1) Identification of tumor types that are the most sensitive to the KSP inhibitors of the present invention can be accomplished using an unbiased approach that uses several cell-based assays. The assays chosen were as follows: • CellTiter-Glo®. This is an assay designed to measure ATP concentration in a cell culture, and can be correlated to cell number. Briefly CellTiter-Glo® (Promega Corporation) is a homogeneous method using the single CellTiter-Glo® reagent to detect ATP wherein ATP in the assay drives the activity of a thermostable luciferase to create a luminescent signal which can then be measured and correlated with the number of viable cells. Briefly, for adherent cells, 1,000 to 5,000 cells/well were plated in 96-well plates (100 μl/well) and let to adhere for 24 hours before being treated with drug. For non-adherent cells, 1,000 to 10,000 cells/well were plated in 96-well plates (100 μl/well) and immediately treated with drug. Drug dilutions were prepared in DMSO at 1000 times the final concentration. These dilutions were then diluted 1/100 in growth media before being added to the cells (11 μl/well) to achieve the desired final concentration. After 48 h in a 37° C. tissue culture incubator, the plates were processed for the CellTiter-Glo®assay according to the manufacturer's instructions. Protocol for a 72 hour cell proliferation assay: The 72 hour assay was performed the same way as the 48 hour assay except for the following modifications: For adherent cells, 500 to 5,000 cells/well were plated in 96-well plates (90 μl/well cell growth media) and left to adhere for 24 hours before being treated with drug. For non-adherent cells, 1,000 to 10,000 cells/well were plated in 96-well plates (90 μl/well cell growth media) and immediately treated with drug. Data values presented represent the concentration of test compound required for a 50% reduction in growth. • LDH release. The Cytotoxicity Detection KitPLUS (LDH) assay (Roche Diagnostics, Manheim, Germany) measures the amount of LDH released in the media by dying cells; LDH catalyzes the conversion of lactate into pyruvate. The enzymatic reaction is coupled to a chemical reaction that uses a tetrazolium salt to form a formazan that is red and can be detected by its absorbance at 490 nm. This assay measures the amount of cell death after drug treatment. Cells were plated at 10,000 cells/well in 96-well plates (100 μl/well). Adherent cells were let to adhere for 24 hours before being treated with drug, whereas non-adherent cells were immediately treated with drug. Drug dilutions were prepared in DMSO at 1000 times the final concentration. These dilutions were then diluted 1/100 in growth media before being added to the cells (11 μl/well) to achieve the desired final concentration. After 48 h in a 37° C. tissue culture incubator, the plates were processed for the Cytotoxicity Detection KitPLUS (LDH) assay according to the manufacturer's instructions. The media only values were subtracted from all the data points before analysis. Data values presented correspond to the compound concentration wherein LDH output is at half maximal level. • Caspase-Glo® 3/7. The Caspase-Glo® 3/7 Assay (Promega Corporation) is a homogeneous luminescent assay that measures caspase-3/7 activities. The assay provides a proluminescent caspase-3/7 DEVD-aminoluciferin substrate and a thermostable luciferase in a reagent optimized for caspase-3/7 activity, luciferase activity and cell lysis. Adding the single Caspase-Glo® 3/7 Reagent results in cell lysis, followed by caspase cleavage of the substrate. This liberates free aminoluciferin, which is consumed by the luciferase, generating a luminescent signal. The signal is proportional to caspase-3/7 activity. Data values presented correspond to the compound concentration wherein caspase 3/7 activity is at half maximal level."}, "[2]": {"test_system": "MV4; 11", "settings": "Homo sapiens", "from_the_text": "as §1"}, "[3]": {"test_system": "Colo-205", "settings": "Homo sapiens", "from_the_text": "as §1"}, "[4]": {"test_system": "HCT-116", "settings": "Homo sapiens", "from_the_text": "as §1"}},
  "note": "pEC50: −log10 of the molar value.",
  "data": [
    {"compound": "CC(C)(C)[C@H](c1nc(-c2cc(F)ccc2F)cn1Cc1ccccc1)N(CC[C@H](N)CF)C(=O)CO", "note": "[Compound IIa]", "values": [
      {"measurement": "pEC50", "setting": "[1]; 48 h", "result": 9.41},
      {"measurement": "pEC50", "setting": "[1]; 72 h", "result": 9.40},
      {"measurement": "pEC50", "setting": "[2]; MV4;11, 24 h", "result": 10.70},
      {"measurement": "pEC50", "setting": "[2]; MV4;11, 48 h", "result": 10.52},
      {"measurement": "pEC50", "setting": "[3]; Colo-205, 24 h", "result": 9.89},
      {"measurement": "pEC50", "setting": "[3]; Colo-205, 48 h", "result": 9.68},
      {"measurement": "pEC50", "setting": "[3]; Colo-205, 72 h", "result": 9.72},
      {"measurement": "pEC50", "setting": "[4]; HCT-116, 24 h", "result": 9.92},
      {"measurement": "pEC50", "setting": "[4]; HCT-116, 48 h", "result": 10.05}
    ]}
  ]
}
